Experiments:
[1] = molecular target: T1, Ribosyldihydronicotinamide dehydrogenase [quinone] (Homo sapiens, UniProt P16083); assay: Fluorescence Titration Assay
T1 sequence (P16083 whole entry): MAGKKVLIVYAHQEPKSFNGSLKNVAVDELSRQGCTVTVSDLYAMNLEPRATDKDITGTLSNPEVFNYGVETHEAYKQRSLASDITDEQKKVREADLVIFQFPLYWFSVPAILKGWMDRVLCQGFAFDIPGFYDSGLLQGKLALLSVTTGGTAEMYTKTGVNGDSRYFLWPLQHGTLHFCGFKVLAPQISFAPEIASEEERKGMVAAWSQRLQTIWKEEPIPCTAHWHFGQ
Experimental: To assess direct binding of inhibitors to oxidized NQO2 (NQO2ox), fluorescence quenching of FAD was monitored with an excitation wavelength of 350 nm and an emission wavelength of 430 nm. NQO2 (775 or 38.75 nM) was titrated with the indicated concentrations of TBB, TBBz, and DMAT.

[2] = molecular target: T1, Ribosyldihydronicotinamide dehydrogenase [quinone]; assay: Inhibition of Steady-State Catalysis Assay
Experimental: To determine the IC50 value of each inhibitor, reactions were initiated by addition of 154 pM NQO2 to a reaction buffer containing 150 μM SCDP and 5 μM menadione with TBB (0.625−640 μM), TBBz (2.5−640 nM), or DMAT (2.5−640 nM).

| SMILES | Kd [1] [nM] | IC50 [2] [nM] |
| --- | --- | --- |
| Brc1c(Br)c(Br)c2[nH]cnc2c1Br [4,5,6,7-tetrabromo-1H-benzimidazole] | 18.1 | 79.4 |
| CN(C)c1nc2c(Br)c(Br)c(Br)c(Br)c2[nH]1 [2-(dimethylamino)-4,5,6,7-tetrabromo-1H-benzimidazole] | 36.4 | 484 |
| Brc1c(Br)c(Br)c2[nH]nnc2c1Br | 7110 | 12800 |

From BindingDB's records for doi:10.1021/bi500959t (University of Western Ontario, 2015)
